Source: patent US8426408B2, “Pyrimidine inhibitors of kinases” (AbbVie Inc., priority 2009, dated 2013)

Target: KDR (Homo sapiens, UniProt P35968)
Experiment: KDR cellular assay (KDR receptor phosphorylation ELISA)
Type: cell-based
Set-up: expressed in transfected cells; host or cells: 3T3 (embryonic mouse) cells
Settings: KDR transfected 3T3 (embryonic mouse) cells, VEGF stimulated; read-out: IC50 inhibition of KDR phosphorylation
Summary of the method: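 KDR-transfected mouse 3T3 cells treated 20 min at 37° C with half-log compound dilutions, then stimulated 10 min with VEGF (100 ng/ml solution). Lysates captured on anti-KDR plates; phosphorylation by biotin antibody/streptavidin-HRP ELISA at 450 nm. IC50 by non-linear regression.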

Sequence of KDR (P35968 20-1356): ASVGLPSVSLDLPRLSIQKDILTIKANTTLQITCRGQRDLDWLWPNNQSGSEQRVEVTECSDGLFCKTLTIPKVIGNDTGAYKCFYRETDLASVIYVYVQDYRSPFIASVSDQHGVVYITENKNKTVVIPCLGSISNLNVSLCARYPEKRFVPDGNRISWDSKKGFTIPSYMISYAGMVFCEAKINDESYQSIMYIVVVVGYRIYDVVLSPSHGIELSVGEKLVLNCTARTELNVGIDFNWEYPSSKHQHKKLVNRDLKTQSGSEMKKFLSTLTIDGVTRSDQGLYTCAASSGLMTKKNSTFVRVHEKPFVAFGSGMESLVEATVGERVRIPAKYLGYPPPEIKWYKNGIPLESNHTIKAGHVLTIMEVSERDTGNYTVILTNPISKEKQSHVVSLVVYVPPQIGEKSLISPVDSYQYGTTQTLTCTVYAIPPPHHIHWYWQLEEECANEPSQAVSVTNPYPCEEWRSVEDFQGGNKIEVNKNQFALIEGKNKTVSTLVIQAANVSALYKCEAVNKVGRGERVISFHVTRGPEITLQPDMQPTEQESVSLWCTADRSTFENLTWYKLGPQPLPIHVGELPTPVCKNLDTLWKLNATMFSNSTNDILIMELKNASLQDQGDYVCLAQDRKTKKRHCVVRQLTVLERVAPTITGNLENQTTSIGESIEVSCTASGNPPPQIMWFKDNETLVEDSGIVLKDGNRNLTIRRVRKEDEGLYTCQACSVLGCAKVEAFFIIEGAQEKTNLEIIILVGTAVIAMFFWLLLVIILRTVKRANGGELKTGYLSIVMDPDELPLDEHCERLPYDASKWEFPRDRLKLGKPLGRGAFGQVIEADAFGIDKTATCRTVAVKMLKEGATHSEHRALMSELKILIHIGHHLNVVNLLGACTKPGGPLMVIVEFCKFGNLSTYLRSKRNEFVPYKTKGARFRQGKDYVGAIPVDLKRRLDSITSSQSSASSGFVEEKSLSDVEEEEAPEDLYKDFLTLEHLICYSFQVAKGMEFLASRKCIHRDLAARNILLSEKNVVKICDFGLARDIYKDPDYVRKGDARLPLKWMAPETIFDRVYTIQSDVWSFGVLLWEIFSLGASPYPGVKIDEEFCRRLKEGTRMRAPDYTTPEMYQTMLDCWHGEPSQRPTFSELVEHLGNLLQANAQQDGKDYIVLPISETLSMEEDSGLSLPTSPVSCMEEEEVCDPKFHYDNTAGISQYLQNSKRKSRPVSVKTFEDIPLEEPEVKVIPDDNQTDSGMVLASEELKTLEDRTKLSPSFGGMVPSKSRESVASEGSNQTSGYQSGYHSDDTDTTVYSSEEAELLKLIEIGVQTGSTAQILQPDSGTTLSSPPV

Molecule	IC50 [nM]
COc1cccc(CCn2cc(Nc3ncc(Br)c(N[C@H]4[C@@H](C(N)=O)[C@@H]5C=C[C@H]4C5)n3)cn2)c1 [Example 160, (1S,2S,3R,4R)-3-{[5-bromo-2-({1-[2-(3-methoxyphenyl)ethyl]-1H-pyrazol-4-yl}amino)pyrimidin-4-yl]amino}bicyclo[2.2.1]hept-5-ene-2-carboxamide]	< 100
NC(=O)[C@@H]1[C@H](Nc2nc(Nc3cnn(Cc4ccccc4Cl)c3)ncc2Cl)[C@H]2C=C[C@@H]1C2 [Example 161, (1S,2S,3R,4R)-3-[(5-chloro-2-{[1-(2-chlorobenzyl)-1H-pyrazol-4-yl]amino}pyrimidin-4-yl)amino]bicyclo[2.2.1]hept-5-ene-2-carboxamide]	< 100
NC(=O)[C@@H]1[C@H](Nc2nc(Nc3cnn(Cc4ccc(Cl)cc4)c3)ncc2Cl)[C@H]2C=C[C@@H]1C2 [Example 162, (1S,2S,3R,4R)-3-[(5-chloro-2-{[1-(4-chlorobenzyl)-1H-pyrazol-4-yl]amino}pyrimidin-4-yl)amino]bicyclo[2.2.1]hept-5-ene-2-carboxamide]	< 100
Cn1cc(Nc2ncc(Cl)c(N[C@H]3[C@@H](C(N)=O)C[C@H]4C[C@@H]3C4(C)C)n2)cn1 [Example 165, (1R,2R,3S,5R)-2-({5-chloro-2-[(1-methyl-1H-pyrazol-4-yl)amino]pyrimidin-4-yl}amino)-6,6-dimethylbicyclo[3.1.1]heptane-3-carboxamide]	100 to 1000
Cn1cc(Nc2ncc(C(F)(F)F)c(N[C@H]3[C@@H](C(N)=O)C[C@H]4C[C@@H]3C4(C)C)n2)cn1 [Example 167, (1R,2R,3S,5R)-6,6-dimethyl-2-({2-[(1-methyl-1H-pyrazol-4-yl)amino]-5-(trifluoromethyl)pyrimidin-4-yl}amino)bicyclo[3.1.1]heptane-3-carboxamide]	100 to 1000
CCn1cc(Nc2ncc(C(F)(F)F)c(N[C@H]3[C@@H](C(N)=O)C[C@H]4C[C@@H]3C4(C)C)n2)cn1 [Example 168, (1R,2R,3S,5R)-2-({2-[(1-ethyl-1H-pyrazol-4-yl)amino]-5-(trifluoromethyl)pyrimidin-4-yl}amino)-6,6-dimethylbicyclo[3.1.1]heptane-3-carboxamide]	100 to 1000
Cc1c(Nc2ncc(Cl)c(N[C@H]3[C@@H](C(N)=O)[C@@H]4C=C[C@H]3C4)n2)cnn1C [Example 169, (1S,2S,3R,4R)-3-({5-chloro-2-[(1,5-dimethyl-1H-pyrazol-4-yl)amino]pyrimidin-4-yl}amino)bicyclo[2.2.1]hept-5-ene-2-carboxamide]	< 100
(1S,2R)-2-{[5-chloro-2-({1-[2-(morpholin-4-yl)ethyl]-1H-pyrazol-4-yl}amino)pyrimidin-4-yl]amino}cyclopentanecarboxamide and (1R,2S)-2-{[5-chloro-2-({1-[2-(morpholin-4-yl)ethyl]-1H-pyrazol-4-yl}amino)pyrimidin-4-yl]amino}cyclopentanecarboxamide [Example 137]	100 to 1000

Further lines, results first:

IC50 [nM]	Molecule
< 100	Cc1c(Nc2ncc(Br)c(N[C@H]3[C@@H](C(N)=O)[C@@H]4C=C[C@H]3C4)n2)cnn1C [Example 170, (1S,2S,3R,4R)-3-({5-bromo-2-[(1,5-dimethyl-1H-pyrazol-4-yl)amino]pyrimidin-4-yl}amino)bicyclo[2.2.1]hept-5-ene-2-carboxamide]
< 100	NC(=O)[C@@H]1[C@H](Nc2nc(Nc3cnn(Cc4ccccc4Cl)c3)ncc2Br)[C@H]2C=C[C@@H]1C2 [Example 171, (1S,2S,3R,4R)-3-[(5-bromo-2-{[1-(2-chlorobenzyl)-1H-pyrazol-4-yl]amino}pyrimidin-4-yl)amino]bicyclo[2.2.1]hept-5-ene-2-carboxamide]
< 100	NC(=O)[C@@H]1[C@H](Nc2nc(Nc3cnn(Cc4ccc(Cl)cc4)c3)ncc2Br)[C@H]2C=C[C@@H]1C2 [Example 172, (1S,2S,3R,4R)-3-[(5-bromo-2-{[1-(4-chlorobenzyl)-1H-pyrazol-4-yl]amino}pyrimidin-4-yl)amino]bicyclo[2.2.1]hept-5-ene-2-carboxamide]
< 100	NC(=O)[C@@H]1[C@H](Nc2nc(Nc3cnn(-c4ccccc4)c3)ncc2Br)[C@H]2C=C[C@@H]1C2 [Example 173, (1S,2S,3R,4R)-3-({5-bromo-2-[(1-phenyl-1H-pyrazol-4-yl)amino]pyrimidin-4-yl}amino)bicyclo[2.2.1]hept-5-ene-2-carboxamide]
< 100	NC(=O)[C@@H]1[C@H](Nc2nc(Nc3cnn(-c4ccccc4)c3)ncc2Cl)[C@H]2C=C[C@@H]1C2 [Example 174, (1S,2S,3R,4R)-3-({5-chloro-2-[(1-phenyl-1H-pyrazol-4-yl)amino]pyrimidin-4-yl}amino)bicyclo[2.2.1]hept-5-ene-2-carboxamide]
< 100	Cc1cccc(Cn2cc(Nc3ncc(Cl)c(N[C@H]4[C@@H](C(N)=O)[C@@H]5C=C[C@H]4C5)n3)cn2)c1 [Example 178, (1S,2S,3R,4R)-3-[(5-chloro-2-{[1-(3-methylbenzyl)-1H-pyrazol-4-yl]amino}pyrimidin-4-yl)amino]bicyclo[2.2.1]hept-5-ene-2-carboxamide]
< 100	NC(=O)[C@@H]1[C@H](Nc2nc(Nc3cnn(Cc4ccc5ccccc5c4)c3)ncc2Cl)[C@H]2C=C[C@@H]1C2 [Example 179, (1S,2S,3R,4R)-3-[(5-chloro-2-{[1-(2-naphthylmethyl)-1H-pyrazol-4-yl]amino}pyrimidin-4-yl)amino]bicyclo[2.2.1]hept-5-ene-2-carboxamide]
< 100	COc1ccc(Cn2cc(Nc3ncc(Cl)c(N[C@H]4[C@@H](C(N)=O)[C@@H]5C=C[C@H]4C5)n3)cn2)cc1F [Example 192, (1S,2S,3R,4R)-3-[(5-chloro-2-{[1-(3-fluoro-4-methoxybenzyl)-1H-pyrazol-4-yl]amino}pyrimidin-4-yl)amino]bicyclo[2.2.1]hept-5-ene-2-carboxamide]
